Here are results for ten compounds from ChEMBL document CHEMBL1201862, “PubChem BioAssay data set” (2004).

Among the test systems are A549; ACHN; COLO 205; HCT-15; Hs-578T; KM12; MDA-MB-231; MDA-MB-435; MDA-N; NCI-H522; PC-3; RPMI-8226; SF-268; SK-MEL-2; SK-MEL-5; SK-OV-3; SNB-75; SW-620; T47D; UACC-257.
Common to all, as to test: NCI-60 cell line screen, 48 h

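These data come from cells grown in 96-well plates and exposed to compound for 48 hours at five concentrations. GI50 marks 50% less growth.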 Calls of active or inactive are those of the source. Rule as the data show it: active = GI50 up to about 1.1 µM and inactive = higher.

For the compound `CC(C)C1CC[C@H](C)C[C@@H]1OC(=O)C(C(=O)O[C@H]1C[C@@H](C)CCC1C(C)C)C(O)[C@@H]1OC(C)(C)O[C@H]1C1COC(C)(C)O1` (stereo not given in full), the GI50 in the test on A549 was 22.3 µM (inactive); in the test on ACHN, 16.6 µM (inactive); in the test with COLO 205, 13.6 µM (inactive); in the test on HCT-15, 20.7 µM; in the test with Hs-578T, 15 µM (inactive); in the test with KM12, 16.6 µM (inactive). Besides, the GI50 was 17 µM (inactive) in the test on MDA-MB-231; 16.6 µM (inactive) with MDA-MB-435; 18.5 µM (inactive) in the test with MDA-N; 1.58 µM (inactive) in the test with NCI-H522; > 10 µM (inactive) in the test on PC-3; 16.7 µM (inactive) with RPMI-8226. Further, the GI50 is 19.9 µM (inactive) in the test with SF-268; 19.4 µM (inactive) in the test with SK-MEL-2; 15.8 µM (inactive) with SK-MEL-5; 26.8 µM (inactive) in the test on SK-OV-3; 15.7 µM (inactive) in the test on SNB-75; 14.2 µM (inactive) in the test with SW-620. Besides, the GI50 in the test on T47D is 13.1 µM (inactive); in the test on UACC-257 it was 24.6 µM (inactive).
Regarding `Cc1cc(C)c(S(=O)(=O)N(CCCN)OCCON(CCCN)S(=O)(=O)c2c(C)cc(C)cc2C)c(C)c1`, the GI50 in the test on A549 was 3.31 µM (inactive); in the test on ACHN it was 23.7 µM (inactive); in the test with COLO 205, 2.66 µM (inactive); with HCT-15, 25.7 µM; in the test on Hs-578T it was 2.67 µM (inactive); with KM12 it was 2.17 µM (inactive). The GI50 in the test with MDA-MB-231 is 2.89 µM (inactive); with MDA-MB-435, 3.89 µM (inactive); in the test on MDA-N, 2.74 µM (inactive); in the test with NCI-H522 it was 6.53 µM (inactive); with PC-3 it was 1.73 µM (inactive); with RPMI-8226, 2.05 µM (inactive). For the same compound, the GI50 with SF-268 is 2.18 µM (inactive); in the test with SK-MEL-2, 1.64 µM (inactive); with SK-MEL-5 it was 8.2 µM (inactive); with SK-OV-3 it was 5.01 µM (inactive); in the test with SNB-75 it was 3.42 µM (inactive); in the test on SW-620, > 22.2 µM (inactive). In addition, the GI50 with T47D was 4.92 µM (inactive); in the test on UACC-257, 3.39 µM (inactive).
Turning to `Cc1ccc2c(c1)c1ccc3c(c1n2C)C(=O)C=CC3=O`, the GI50 is > 10 µM (inactive) with A549; 1.56 µM (inactive) in the test on ACHN; 1.26 µM (inactive) in the test on COLO 205; 1.75 µM with HCT-15; 3.08 µM (inactive) in the test on Hs-578T; 6.84 µM (inactive) with KM12. Also, the GI50 in the test on MDA-MB-231 was 2.36 µM (inactive); in the test with MDA-MB-435 it was 2.35 µM (inactive); with MDA-N it was 1.73 µM (inactive); in the test with NCI-H522 it was 1.23 µM (inactive); with PC-3 it was 3.66 µM (inactive); in the test with RPMI-8226, 1.23 µM (inactive). Further, the GI50 is 3.43 µM (inactive) with SF-268; 7.48 µM (inactive) in the test with SK-MEL-2; 4.56 µM (inactive) with SK-MEL-5; > 10 µM (inactive) with SK-OV-3; > 10 µM (inactive) with SNB-75; 0.543 µM (active) in the test with SW-620. The GI50 is 1.63 µM (inactive) in the test with T47D and 2.51 µM (inactive) in the test on UACC-257.
Take `CC(NC1=NCCO1)c1cccc([N+](=O)[O-])c1` (stereo not given): the GI50 in the test on A549 was > 100 µM (inactive); in the test on ACHN, > 100 µM (inactive); in the test on COLO 205 it was > 100 µM (inactive); in the test with HCT-15, more than 100 µM; with Hs-578T, > 100 µM (inactive); in the test on KM12, > 100 µM (inactive). For the same compound, the GI50 in the test on MDA-MB-231, with MDA-MB-435, in the test on MDA-N, with NCI-H522, in the test on PC-3 and in the test on RPMI-8226 was > 100 µM (inactive) throughout. The GI50 with SF-268, in the test with SK-MEL-2, in the test on SK-MEL-5, with SK-OV-3, with SNB-75 and with SW-620 was > 100 µM (inactive) throughout. Moreover, the GI50 in the test on T47D and in the test with UACC-257 was > 100 µM (inactive) each time.
As for `Cc1ccc(Cc2cc(N3CCN(c4cccc(Cl)c4)CC3)nnc2C)cc1`, the GI50 was 43 µM (inactive) in the test with A549; 88.5 µM (inactive) with ACHN; 29.6 µM (inactive) in the test with COLO 205; 63.8 µM in the test with HCT-15; 54 µM (inactive) in the test with Hs-578T; 44.4 µM (inactive) in the test on KM12. Also, the GI50 was > 100 µM (inactive) with MDA-MB-231; 27.7 µM (inactive) in the test with MDA-MB-435; 16.4 µM (inactive) in the test with MDA-N; 18.7 µM (inactive) in the test on NCI-H522; 46.8 µM (inactive) in the test on PC-3; 17.8 µM (inactive) in the test with RPMI-8226. The GI50 in the test on SF-268 is > 100 µM (inactive); in the test on SK-MEL-2, 96.2 µM (inactive); with SK-MEL-5, 11.5 µM (inactive); with SK-OV-3 it was > 100 µM (inactive); with SNB-75 it was 50.4 µM (inactive); in the test with SW-620 it was 34.3 µM (inactive). For the same compound, the GI50 in the test with T47D was 24.3 µM (inactive); in the test on UACC-257, 14.2 µM (inactive).
As for `CC(C)OC(=O)NNc1c(Cl)cc(Cl)cc1Cl`, the GI50 in the test on A549 was 53 µM (inactive); with ACHN it was > 100 µM (inactive); in the test on COLO 205, 49.1 µM (inactive); in the test with HCT-15 it was 58.5 µM; in the test on Hs-578T it was 58.2 µM (inactive); in the test with KM12, 71.6 µM (inactive). The GI50 is > 100 µM (inactive) in the test with MDA-MB-231; 82.8 µM (inactive) with MDA-MB-435; 55 µM (inactive) in the test with MDA-N; 30.1 µM (inactive) with NCI-H522; 36.9 µM (inactive) in the test with PC-3; 43.4 µM (inactive) in the test with RPMI-8226. Moreover, the GI50 with SF-268 is 39.1 µM (inactive); with SK-MEL-2 it was 55.6 µM (inactive); in the test on SK-MEL-5 it was 22.5 µM (inactive); in the test on SK-OV-3, > 100 µM (inactive); in the test on SNB-75, 99.5 µM (inactive); in the test on SW-620, > 100 µM (inactive). Moreover, the GI50 in the test with T47D and in the test on UACC-257 was 33.7 µM (inactive) throughout.
For `Cc1ccc(NC(=O)CSc2nc(C)nc3c2sc(=S)n3-c2ccccc2)cc1`, the GI50 with A549 was > 10 µM (inactive); in the test with ACHN it was 8.77 µM (inactive); in the test on COLO 205, 6.15 µM (inactive); in the test with HCT-15, more than 10 µM; in the test on Hs-578T, 2.66 µM (inactive); in the test on KM12 it was > 10 µM (inactive). The GI50 in the test on MDA-MB-231 is 6.3 µM (inactive); with MDA-MB-435, 4.06 µM (inactive); in the test on MDA-N it was > 10 µM (inactive); in the test with NCI-H522, > 10 µM (inactive); in the test on PC-3, > 10 µM (inactive); with RPMI-8226, > 10 µM (inactive). In addition, the GI50 in the test with SF-268 was 6.14 µM (inactive); in the test on SK-MEL-2, > 10 µM (inactive); in the test with SK-MEL-5 it was > 10 µM (inactive); with SK-OV-3, 8.2 µM (inactive); with SNB-75, 2.32 µM (inactive); in the test on SW-620, > 10 µM (inactive). Besides, the GI50 with T47D and in the test with UACC-257 was > 10 µM (inactive) throughout.
On to `NC(=O)N/N=C(/CC1C(=O)Oc2ccccc21)c1ccccc1O` (stereo not given), for which the GI50 in the test with A549 is > 100 µM (inactive); in the test on ACHN, 39.7 µM (inactive); in the test with COLO 205 it was 98.2 µM (inactive); in the test with HCT-15 it was 38.4 µM; with Hs-578T it was > 100 µM (inactive); in the test on KM12, 31.9 µM (inactive). Further, the GI50 with MDA-MB-231 was > 100 µM (inactive); in the test with MDA-MB-435, 43.8 µM (inactive); with MDA-N it was 45.5 µM (inactive); in the test on NCI-H522, > 100 µM (inactive); in the test on PC-3, > 100 µM (inactive); in the test on RPMI-8226, 14.1 µM (inactive). The GI50 in the test with SF-268 was > 100 µM (inactive); with SK-MEL-2, > 100 µM (inactive); in the test with SK-MEL-5, 58.6 µM (inactive); in the test on SK-OV-3, 34.1 µM (inactive); in the test on SNB-75, 41.3 µM (inactive); in the test on SW-620 it was 45.7 µM (inactive). Further, the GI50 in the test on T47D is 19.5 µM (inactive); in the test on UACC-257, 44.7 µM (inactive).
As for `O=C(O)c1ccc(NC(c2ccccc2)c2ccc3cccnc3c2O)cc1` (stereo not given), the GI50 in the test with A549 was 5.94 µM (inactive); in the test on ACHN, 8.41 µM (inactive); in the test on COLO 205 it was 9.84 µM (inactive); with HCT-15 it was 4.95 µM; with Hs-578T it was 28.5 µM (inactive); in the test with KM12, 5.14 µM (inactive). The GI50 with MDA-MB-231 is 10.8 µM (inactive); in the test with MDA-MB-435, 16.3 µM (inactive); in the test with MDA-N, 17.5 µM (inactive); in the test on NCI-H522, 4.06 µM (inactive); in the test on PC-3, 9.57 µM (inactive); with RPMI-8226, 4.38 µM (inactive). Further, the GI50 is 7.1 µM (inactive) with SF-268; 26.1 µM (inactive) with SK-MEL-2; 6.65 µM (inactive) in the test on SK-MEL-5; 13.6 µM (inactive) in the test with SK-OV-3; 11.6 µM (inactive) in the test on SNB-75; 5.77 µM (inactive) with SW-620. The results for the GI50 in the test with T47D and in the test with UACC-257 were 10.9 µM (inactive) and 11.1 µM (inactive), respectively.
As to `COc1ccc(C(OCC2OC(n3cc(C)c(=O)[nH]c3=O)CC2n2cc(Cn3cc(Cl)c(=O)[nH]c3=O)nn2)(c2ccccc2)c2ccccc2)cc1` (stereo not given), the GI50 is > 100 µM (inactive) with A549; > 100 µM (inactive) in the test with ACHN; > 100 µM (inactive) in the test with COLO 205; more than 100 µM in the test with HCT-15; 65 µM (inactive) in the test on Hs-578T; > 100 µM (inactive) in the test with KM12. Moreover, the GI50 was 27.6 µM (inactive) with MDA-MB-231; 7.18 µM (inactive) with MDA-MB-435; 9.14 µM (inactive) in the test with MDA-N; > 100 µM (inactive) with NCI-H522; 13.6 µM (inactive) in the test on PC-3; 4.31 µM (inactive) in the test on RPMI-8226. The GI50 in the test on SF-268, in the test on SK-MEL-2, with SK-MEL-5, with SK-OV-3, with SNB-75 and with SW-620 was > 100 µM (inactive) each time. Besides, the GI50 in the test with T47D and in the test with UACC-257 was > 100 µM (inactive) in each case.
